The source made the active and inactive calls.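 How the source made its calls: active means EC50 no more than a set limit of log units above the highest dose; inactive means the rest.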
Target: S. pyogenes SKKanGAS, kanamycin survival, BacTiterGlo, 6 h
Experiment: SKKanGAS survival reduction under kanamycin, dose response, streptokinase promoter inhibitor project, SKKanGAS strain, luminescence, dose confirmation (AID 1902);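 further: lower survival reflects blocked streptokinase promoter driving kanamycin resistance gene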

Row | Compound | EC50
1 | COCCNC(=O)c1c(NC(=O)c2ccc(Br)o2)n(Cc2ccccc2)c2nc3ccccc3nc12 | 2.44 µM
2 | Cc1ccc(/C=C/C2=NN(Cc3ccc(Cl)c(Cl)c3)C(=O)CC2)cc1 | 7.83 µM
3 | CSc1ccccc1-c1n[nH]c(=S)o1 | > 5 µM (inactive)
4 | O=C(COc1ccc(F)cc1Cl)Nc1nc(-c2ccccn2)cs1 | 1.12 µM
5 | CCn1c(=O)n(CC)c2cc(N3CCCC3)c(NC(=O)c3cc(Br)ccc3OC)cc21 | 4.28 µM
6 | Cc1cc(C)c2c(C(C)(C)C)nn(-c3ccccc3)c2n1 | 2.97 µM
7 | COc1ccc(-c2noc(-c3ccccc3-c3ccccc3)n2)cc1 | 8.18 µM
8 | NC(=O)NC(=O)CSc1nc2sc(-c3ccccc3)cc2c(=O)n1-c1ccccc1 | 1.18 µM
9 | Cc1cccc(NC(=O)c2ccc(S(=O)(=O)N(C)CC3CCCO3)cc2)c1C (stereo not given) | > 15 µM (inactive)
10 | CCCC1CC(C(=O)NC(C(C)Cl)C2OC(SC)C(O)C(O)C2O)N(C)C1 (stereo not given) | < 0.06 µM
11 | Cc1cccc(N2CCN(C(=O)c3cc4n(n3)C(C(F)(F)F)CC(c3ccco3)N4)CC2)c1C (stereo not given) | 4.2 µM
12 | Cc1ccc(NNC(=O)C2CCC2)cc1C | > 15 µM (inactive)
13 | O=C(Oc1ccc(Cl)c2cccnc12)c1ccco1 | 3.69 µM
14 | CCOC(=O)c1cnn(-c2nc3c(C)cccc3s2)c1C(F)(F)F | 12.5 µM
15 | Cc1nnc(Sc2cc(NCCCO)c([N+](=O)[O-])c3nonc23)s1 | 7.78 µM
16 | CCOC(=O)CCC(=O)O[C@H]1[C@H](O[C@@H]2[C@@H](C)[C@H](O[C@H]3C[C@@](C)(OC)[C@@H](O)[C@H](C)O3)[C@@H](C)C(=O)O[C@H](CC)[C@@](C)(O)[C@H](O)[C@@H](C)C(=O)[C@H](C)C[C@@]2(C)O)O[C@H](C)C[C@@H]1N(C)C | < 0.06 µM
17 | Cc1noc(C)c1C(=O)Nc1nccs1 | > 15 µM (inactive)
18 | O=c1c(O)c(-c2cccs2)oc2ccccc12 | 3.94 µM
19 | O=c1oc2ccccc2c(O)c1C(c1ccc([N+](=O)[O-])cc1)c1c(O)c2ccccc2oc1=O | 6.3 µM
20 | Oc1c(C(Nc2ccccn2)c2cccnc2)cc(Cl)c2cccnc12 (stereo not given) | 2.46 µM
21 | CCOC(=O)c1sc2nc(Cc3ccc(Cl)cc3)[nH]c(=S)c2c1C | 3.21 µM
22 | O=C(Nc1ccc2nc(-c3ccc4nc[nH]c4c3)[nH]c2c1)c1cccs1 | 15.7 µM
23 | N#Cc1c(N)nc(Sc2ccc(Cl)cc2)c(C#N)c1-c1ccccc1Cl | 6.03 µM
24 | O=C(O)CCCNc1cc(N2CCN(C(=O)c3ccco3)CC2)c2noc3c2c1C(=O)c1ccccc1-3 | 6.02 µM
25 | O=C(CNc1ccc2ccccc2c1)N/N=C/c1ccc([N+](=O)[O-])o1 | 14.3 µM
26 | OC(CNCc1ccco1)Cn1c2ccc(Br)cc2c2cc(Br)ccc21 (stereo not given) | 5.85 µM
27 | Cc1ccc(C(=O)/C=C/C(=O)c2ccc(C)cc2)cc1 | 3.61 µM

Row | Compound | EC50
28 | N#CC1=C(c2ccccc2)/C(=C/c2ccccc2)OC1=O | 9.97 µM
29 | COc1ccc(OC)c(/C=C/c2ccc3cccc(O)c3n2)c1 | 0.197 µM
30 | O=[N+]([O-])c1ccc(/C=N/Nc2nc(N3CCCCCC3)nc(N3CCCCCC3)n2)o1 | 0.618 µM
31 | Cc1cc(SCC(=O)c2ccc(O)c(O)c2)n2nc(C)c(-c3ccccc3)c2n1 | 5.05 µM
32 | CC(C)=CCc1c(O)cc2c(c1O)C(=O)CC(c1ccc(O)cc1)O2 (stereo not given) | 6.08 µM
33 | Cc1ccc(-c2cc(C(=O)Nc3ccc(S(=O)(=O)Nc4cc(C)on4)cc3)c3ccccc3n2)c(C)c1 | 5.67 µM
34 | Cc1cccc(N=C2NN=C(c3c(C)[nH]c4ccccc34)CS2)c1 | 3.02 µM
35 | Cc1cccc(Cn2nc(-n3cccc3)c3c(C)cc(C)nc32)c1 | 6.78 µM
36 | COc1ccc(-c2cc(-c3ccc(Cl)cc3)n[nH]2)c(O)c1 | 8.75 µM
37 | CCCCCNC(=O)c1ccc2c(=O)[nH]c3c(C(=O)NCC4CCCO4)sc(=S)n3c2c1 (stereo not given) | 2.17 µM
38 | O=C(/C=C/c1ccco1)Nc1nc(-c2ccccn2)cs1 | 0.362 µM
39 | CCCCn1c(O)c(C(C)=Nc2ccc(OCC)cc2)c(=O)[nH]c1=O | 9.75 µM
40 | Fc1ccc(CSc2nc3ccccc3[nH]2)c2ccccc12 | 6.11 µM
41 | Cc1cc(C)c(C)c(S(=O)(=O)N2CCC(C(=O)NNC(=O)c3ccccc3O)CC2)c1C | 11.8 µM
42 | C[C@H]1[C@H](C)CC[C@]2(C(=O)O)CC[C@]3(C)C(=CC[C@@H]4[C@@]5(C)C[C@@H](O)[C@H](O)C(C)(C)[C@@H]5CC[C@]43C)[C@H]12 | 2.81 µM
43 | CCCC(Oc1ccc(Br)cc1)c1nc2c3cc(OC)c(OC)cc3nc(=S)n2[nH]1 (stereo not given) | 0.145 µM
44 | O=C(Nc1ccc(OCC(F)(F)C(F)F)c(C(F)(F)F)c1)c1ccc(Cl)cc1 | 3.62 µM
45 | CCc1cc(C(=O)N2CCCC(CCC(=O)NCc3cccc(OC)c3)C2)no1 (stereo not given) | > 15 µM (inactive)
46 | COc1ccc(/C=C2/S/C(=N/N=C3\CC4CCC3(C)C4(C)C)NC2=O)cc1 (stereo not given) | 10.7 µM
47 | CN(C)Cc1nc2ccccc2c(=O)n1Cc1nc(-c2cc3ccccc3o2)cs1 | 1.82 µM
48 | O=C(Cc1cccs1)Nc1cccc(-c2nc3cc4ccccc4cc3[nH]2)c1 | 4.25 µM
49 | CC1CCCN(S(=O)(=O)c2ccc(C(=O)Nc3nnc(C4=COCCO4)o3)cc2)C1 (stereo not given) | 5.27 µM
50 | Cc1nn(-c2ccccc2)c2sc(-c3n[nH]c(=S)o3)cc12 | 3.99 µM
51 | Cc1[nH]n2c(=O)cc(C(C)(C)C)nc2c1-c1ccccc1 | 2.77 µM
52 | CC(C)COCc1ccc(O)c2ncccc12 | 1.02 µM
53 | CCCCn1c(O)c(C(CC)=Nc2ccc3c(c2)CCC3)c(=O)[nH]c1=O | 6.01 µM
54 | Cc1nc(-c2ccccn2)nc(SCC(=O)c2ccccc2)c1Cl | 0.811 µM

Row | Compound | EC50
55 | CCOc1ccc(-n2c(O)c(/C=N/NC(=O)C3COc4ccccc4O3)c3ccccc3c2=O)cc1 (stereo not given) | 2.34 µM
56 | C/C(N)=C(/C#N)C(=O)CSc1nc2scc(-c3ccc(F)cc3)c2c(=O)n1C | 2.1 µM
57 | COc1ccc(NC(=S)NNc2ccc([N+](=O)[O-])cc2S(=O)(=O)Nc2ccc(C)cc2C)cc1 | 8.34 µM
58 | O=C(Nc1ncc(Cc2cccc(Cl)c2)s1)c1cccs1 | 3.91 µM
59 | C=CCOC(=O)C1=C(C)NC(SCC)=C(C#N)C1c1ccc(Cl)cc1 (stereo not given) | 5.92 µM
60 | O=C(COC(=O)c1ccccc1Br)Nc1nnc(-c2ccccc2)o1 | 0.689 µM
61 | CCCCn1c(-c2ccco2)nc2oc3ccccc3c(=O)c2c1=O | 15.1 µM
62 | Cc1ccc(SCc2cc(=O)[nH]c(SCC(=O)Nc3cc(Cl)ccc3Cl)n2)cc1 | 6.79 µM
63 | CC(C)(C)N/N=C1\CC(c2ccccc2)Oc2ccccc21 (stereo not given) | 3.03 µM
64 | Oc1c(Cl)cc(Cl)c2c1NCCC2 | 5.37 µM
65 | S=c1[nH]nc(C2CCCCC2)n1/N=C/c1c(Cl)cccc1Cl | 8.36 µM
66 | c1ccc2c(c1)ncn2CCCOc1ccc2c(c1)CCC2 | 7.49 µM
67 | Cc1ccc(C(=O)c2c(C)oc3c2C(=O)C(=O)c2ccccc2-3)cc1 | 0.801 µM
68 | O=C(N/N=C/c1c(O)n(Cc2ccccc2)c(=O)[nH]c1=O)c1ccccc1 | 8.62 µM
69 | O=C(NNc1ccccc1Br)C(O)(c1cccc(C(F)(F)F)c1)c1cccc(C(F)(F)F)c1 | 2.59 µM
70 | CCOc1ccc2[nH]c3c(N4CCc5ccccc5C4)ncnc3c2c1 | 7.94 µM
71 | COc1cccc(/C=N/NC(=O)c2cc3c(OC)ccc(OC)c3[nH]2)c1O | 2 µM
72 | Cc1ccc(Nc2nc3nonc3[nH]c2=O)cc1Cl | 2.54 µM
73 | O=c1[nH]c(=O)n([C@H]2C[C@H](O)[C@@H](CO)O2)cc1F | 0.689 µM
74 | CCOC(=O)c1nc(Nc2ccc(Nc3ccccc3)cc2)c2ccccc2n1 | 9.84 µM
75 | c1ccc(-c2oc3ncnc(NCCCn4ccnc4)c3c2-c2ccccc2)cc1 | 8.92 µM
76 | CC1COc2c(N3CCN(C)CC3)c(F)cc3c(=O)c(C(=O)O)cn1c23 (stereo not given) | 3.69 µM
77 | O=C(CSC(=S)N1CCCCC1)Nc1nc(-c2ccccc2)c(-c2ccccc2)o1 | 1.76 µM
78 | O=C1c2ccccc2C2=Nc3ccccc3SC(c3ccccc3F)C12 (stereo not given) | 3 µM
79 | O=C(CSc1nnc(NC(=O)c2cccc(F)c2)s1)NCC1CCCO1 (stereo not given) | > 15 µM (inactive)
80 | COc1cc(/C=C/C(=O)OCC(=O)c2c(N)n(C)c(=O)n(C)c2=O)ccc1OCC#N | 5.45 µM
81 | CCCc1sc(N/N=C/c2ccccn2)nc1-c1ccc(Br)cc1 | 0.241 µM

Row | Compound | EC50
82 | O=C(O)CN1C(=O)/C(=C\c2cc(Br)ccc2OCc2ccc(Cl)cc2Cl)SC1=S | 1.51 µM
83 | Cc1ccccc1Nc1nc(N)nc(CN(C)Cc2ccccc2Cl)n1 | 1.76 µM
84 | CCCCCCc1cc2cc(C(=O)OCC)c(=O)oc2cc1O | 5.46 µM
85 | C/C(=N\NC(=O)c1ccccc1N)c1ccc(NC(=O)Cc2ccccc2)cc1 | 4.95 µM
86 | Cc1onc(-c2ccccc2)c1C(=O)NC(=S)NNC(=O)c1ccco1 | 0.943 µM
87 | CCCn1cc(CN2CCC(n3nccc3NC(=O)c3ccccc3)CC2)c(C)n1 | > 15 µM (inactive)
88 | CCOC(=O)c1c(-c2ccc(C)o2)csc1NC(=O)COC(=O)c1ccc(NC(N)=O)cc1 | 2.53 µM
89 | CN1c2ccccc2C(C)(C)C12C=Nc1c(ccc3ccccc13)O2 (stereo not given) | 2.16 µM
90 | COc1ccc(-c2csc(NC(=O)c3ccc(C(C)(C)C)cc3)c2C(=O)O)cc1 | 1.21 µM
91 | CCN(CC)C(=S)SCC(=O)Nc1nc(-c2ccccc2)c(-c2ccccc2)o1 | 1.26 µM
92 | NC(=NCCCCCCN=C(N)/N=C(\N)Nc1ccc(Cl)cc1)/N=C(\N)Nc1ccc(Cl)cc1 | 0.789 µM
93 | CC(C)(C)c1ccc(S(=O)(=O)N2CCC(c3nc4ccc(Cl)cc4[nH]3)CC2)cc1 | 5.11 µM
94 | O=C(/C=C/c1cccc(C(F)(F)F)c1)Nc1cccc(C(F)(F)F)c1 | 3.3 µM
95 | CCCOC(=O)c1ccc(Oc2cn[nH]c2-c2ccc(O)cc2O)cc1 | 3.34 µM
96 | CC1(C)S[C@@H]2[C@H](NC(=O)COc3ccccc3)C(=O)N2C1C(=O)OCC1CCCCC1 (stereo not given in full) | 8 µM
97 | Cn1c(O)c(N=Nc2nc(-c3ccccc3)cs2)c2ccccc21 | 1.2 µM
98 | O=C(CSc1nc(-c2ccc(Cl)cc2)[nH]c(=O)n1)Nc1cccc(Cl)c1 | 2.35 µM
99 | Cc1[nH]n(-c2ncc(-c3ccccc3)s2)c(=O)c1C(c1ccc(Br)cc1)C(C#N)C#N (stereo not given) | 5.83 µM
100 | CCCC(=O)NC(c1ccc(Cl)cc1Cl)c1ccc2cccnc2c1O (stereo not given) | 0.912 µM
101 | CCc1ccc(Nc2n[n+](-c3ccccc3)c(-c3c(Cl)cccc3Cl)s2)cc1 | 6.22 µM
102 | CCS(=O)(=O)N1Cc2ccccc2CC1C(=O)Nc1nnc(SCc2ccc(C#N)cc2)s1 (stereo not given) | 8.26 µM
103 | CCN(CC)c1ccc(/C=N/Nc2nc3ccccc3[nH]2)c(O)c1 | 3.17 µM
104 | CC(C)(C)OC(=O)[C@H](Cc1ccccc1)NC(=O)c1[nH]cnc1C(=O)Nc1cccc(Cl)c1 | 2.4 µM
105 | O=C(Cc1ccc([N+](=O)[O-])cc1)N/N=C/c1ccc([N+](=O)[O-])o1 | 9.86 µM

From PubChem BioAssay AID1902 (Broad Institute, 2009)
